Converted amounts (≈) assume the structure as drawn. Like-named read-outs stand apart in the source and are kept apart here.
Assays:
[1] = Excerpt: The completeness of the amorphization process can be checked by the absence in the Differential Scanning Calorimetry thermogram of the resulting drug-polymer system of the transition peak relative to the solid/liquid endothermic transition of the crystalline drug. The absence of the transition peak means that the enthalpy of melting is practically zero.
This transformation is indicated by the shifting of the original endothermic peak of the DSC thermogram to lower temperatures, which leads to higher dissolution rates and bioavailability.
Differential Scanning Calorimetry Data

[2] = Solubility of griseofulvin systems, pH 7.4 buffer, 37° C.
Method: (§1) The flasks were placed in a shaking thermostated apparatus and aliquots of sample solutions were taken by filtering through a Millipore membrane.
The griseofulvin concentrations were determined by spectrophotometry (λ=294 nm).

[3] = Solubility of indomethacin systems, pH 6.8 buffer, 37° C.; type: physicochemical
Method: The indomethacin concentrations were determined by spectrophotometry (λ=317 nm).

[4] = buffer, pH 2
Method: as §1
The indoprofen concentrations were determined by spectrophotometry (λ=280 nm).

[5] = Solubility of MAP systems, pH 5.5 phosphate buffer, 37° C.; type: physicochemical
Method: The flasks were placed in a shaking thermostated apparatus and aliquots of sample solutions were taken by filtering through a Millipore membrane. The concentration of MAP in the filtered aliquot was determined both by spectrophotometry (SP 8-100, Pye Unicam) after dilution with methanol, λ=247 nm, and by HPLC (column: Spherisorb S30 D52, Phase Sep.; mobile phase acetonitrile/water 70/30 v/v; flow rate 1 ml/min; U.V. detection, λ=242 nm), after dilution with acetonitrile.

For `COC1=CC(=O)C[C@@H](C)[C@]12Oc1c(Cl)c(OC)cc(OC)c1C2=O` [Pure crystalline Griseofulvin, griseofulvin], the “Melting Point” value [1] was 218.8 °C, the “% Residual of Original Heat of Fusion” value ([1]; griseofulvin systems, Table 3) was 100% and the “Heat of Fusion” value ([1]; griseofulvin systems, Table 3) was 119.22 J/g. For the same compound, the “Solubility (griseofulvin concentration)” value ([2]; 5 min) was 9.1 µg/mL (≈ 25.8 µM), the “Solubility (griseofulvin concentration)” value ([2]; 15 min) was 11.0 µg/mL (≈ 31.2 µM) and the “Solubility (griseofulvin concentration)” value ([2]; 1 hr) was 10.9 µg/mL (≈ 30.9 µM). The “Solubility (griseofulvin concentration)” value ([2]; 3 hrs) was 11.3 µg/mL (≈ 32 µM) and the “Solubility (griseofulvin concentration)” value ([2]; 24 hrs) was 14.9 µg/mL (≈ 42.2 µM).

In the case of `COc1ccc2c(c1)c(CC(=O)O)c(C)n2C(=O)c1ccc(Cl)cc1` [Pure crystalline Indomethacin, indomethacin], the “Heat of Fusion” value ([1]; indomethacin systems, Table 4) is reported as 110.8 J/g, the “Melting Point” value ([1]; indomethacin systems, Table 4) is reported as 160.2 °C and the “Solubility (indomethacin concentration)” value ([3]; 5 min) is reported as 230.2 µg/mL (≈ 643 µM). For the same compound, the “Solubility (indomethacin concentration)” value ([3]; 15 min) was 358.2 µg/mL (≈ 1000 µM), the “Solubility (indomethacin concentration)” value ([3]; 1 hr) was 482.1 µg/mL (≈ 1350 µM) and the “Solubility (indomethacin concentration)” value ([3]; 3 hrs) was 502.8 µg/mL (≈ 1410 µM). For the same compound, the “Solubility (indomethacin concentration)” value ([3]; 24 hrs) was 502.0 µg/mL (≈ 1400 µM).

In the case of `CC(C(=O)O)c1ccc(N2Cc3ccccc3C2=O)cc1` (stereo not drawn) [Pure crystalline Indoprofen, indoprofen], the “Melting Point” value [1] is reported as 212-215 °C, the “% Residual of Original Heat of Fusion” value ([1]; indoprofen systems, Table 2) is reported as 100.0% and the “Heat of Fusion” value ([1]; indoprofen systems, Table 2) is reported as 134.6 J/g. The “Solubility (indoprofen concentration)” value ([4]; 5 min) was 1.6 µg/mL (≈ 5.69 µM), the “Solubility (indoprofen concentration)” value ([4]; 0.25 h) was 3.0 µg/mL (≈ 10.7 µM) and the “Solubility (indoprofen concentration)” value ([4]; 1 h) was 4.8 µg/mL (≈ 17.1 µM). The “Solubility (indoprofen concentration)” value ([4]; 24 h) was 10.3 µg/mL (≈ 36.6 µM).

With `CC(=O)O[C@]1(C(C)=O)CC[C@H]2[C@@H]3C[C@H](C)C4=CC(=O)CC[C@]4(C)[C@H]3CC[C@@]21C` [Pure crystalline MAP, medroxyprogesterone acetate] the “Melting Point” value [1] was 205-206 °C, the melting point [1] was 205.6 ° and the “% Residual of Original Heat of Fusion” value ([1]; MAP systems, Table 1) was 100.0%. The “Heat of Fusion” value ([1]; MAP systems, Table 1) was 88.0 J/g, the “Solubility (MAP dissolved)” value ([5]; 5 min) was under 0.04 µg/mL and the “Solubility (MAP dissolved)” value ([5]; 15 min) was 0.32 µg/mL. For the same compound, the “Solubility (MAP dissolved)” value ([5]; 1 hr) was 0.68 µg/mL and the “Solubility (MAP dissolved)” value ([5]; 6 hrs) was 1.00 µg/mL.
